Assay results from ChEMBL document CHEMBL1134705, “Synthesis and antimicrobial activity of new 3 alpha-hydroxy-23,24-bisnorcholane polyamine carbamates” (2001).
Converted amounts (≈) assume the structure as drawn.

Key:
[1] = test system: Serratia marcescens; assay: Evaluated for its antimicrobial activity against Serratia marcescens (27117); format: functional
[2] = test system: Escherichia coli; assay: Evaluated for its antimicrobial activity against Escherichia coli (25922); format: functional
[3] = test system: Salmonella typhimurium; assay: Evaluated for its antimicrobial activity against Salmonella Typhimurium (14028); format: functional, Salmonella enterica subsp. enterica serovar Typhimurium; conditions: Salmonella enterica
[4] = test system: Bacillus subtilis; assay: Evaluated for its in vitro antimicrobial activity against Bacillus subtilis (6633); format: functional
[5] = test system: Micrococcus luteus; assay: Evaluated for its antimicrobial activity against Micrococcus luteus (9341); format: functional
[6] = test system: Proteus mirabilis; assay: Evaluated for its antimicrobial activity against Proteus mirabilis (25933); format: functional
[7] = test system: Pseudomonas aeruginosa; assay: Evaluated for its antimicrobial activity against Pseudomonas aeruginosa (27853); format: functional
[8] = test system: Staphylococcus aureus; assay: Evaluated for its in vitro antimicrobial activity against Staphylococcus aureus (6538p); format: functional
[9] = In vitro minimal hemolytic activity was determined; format: functional
[10] = test system: Klebsiella pneumoniae; assay: Evaluated for its antimicrobial activity against Klebsiella pneumoniae (10031); format: functional
[11] = Evaluated for its in vitro antimicrobial activity against Staphylococcus equisimilis (6580C); format: functional

C[C@H](COC(=O)NCCCNCCCCN)[C@H]1CC[C@H]2[C@@H]3CC[C@@H]4C[C@H](O)CC[C@]4(C)[C@H]3CC[C@]12C
MIC [1]: > 100 µg/mL | MIC [2]: 25 µg/mL (≈ 49.4 µM) | MIC [3]: 12.5 µg/mL (≈ 24.7 µM) | MIC [4]: 3.13 µg/mL (≈ 6.19 µM) | MIC [5]: 1.56 µg/mL (≈ 3.08 µM) | MIC [6]: > 100 µg/mL | MIC [7]: > 100 µg/mL | MIC [8]: 0.78 µg/mL (≈ 1.54 µM) | MHC [9]: 25 µg/mL | MIC [10]: 3.13 µg/mL (≈ 6.19 µM) | MIC [11]: 3.13 µg/mL (≈ 6.19 µM)

C[C@H](COC(=O)NCCCNCCCCN)[C@H]1CC[C@H]2[C@@H]3[C@H](F)C[C@H]4C[C@H](O)CC[C@]4(C)[C@H]3CC[C@]12C
MIC [1]: > 100 µg/mL | MIC [2]: 12.5 µg/mL (≈ 23.9 µM) | MIC [3]: > 100 µg/mL | MIC [4]: 3.13 µg/mL (≈ 5.98 µM) | MIC [5]: 3.13 µg/mL (≈ 5.98 µM) | MIC [6]: > 100 µg/mL | MIC [7]: 12.5 µg/mL (≈ 23.9 µM) | MIC [8]: 3.13 µg/mL (≈ 5.98 µM) | MHC [9]: 50 µg/mL | MIC [10]: 12.5 µg/mL (≈ 23.9 µM) | MIC [11]: 6.25 µg/mL (≈ 11.9 µM)

C[C@H](COC(=O)NCCCNCCCCN)[C@H]1CC[C@H]2[C@@H]3CC[C@H]4C[C@H](O)CC[C@]4(C)[C@H]3CC[C@]12C
MIC [1]: > 100 µg/mL | MIC [2]: > 100 µg/mL | MIC [3]: 12.5 µg/mL (≈ 24.7 µM) | MIC [4]: 6.25 µg/mL (≈ 12.4 µM) | MIC [5]: 3.13 µg/mL (≈ 6.19 µM) | MIC [6]: > 100 µg/mL | MIC [7]: > 100 µg/mL | MIC [8]: 3.13 µg/mL (≈ 6.19 µM) | MHC [9]: 25 µg/mL | MIC [10]: 1.56 µg/mL (≈ 3.08 µM) | MIC [11]: 12.5 µg/mL (≈ 24.7 µM)

CC(C)[C@@H](CC[C@@H](C)[C@H]1CC[C@H]2[C@@H]3[C@H](O)C[C@H]4C[C@@H](NCCCNCCCCN)CC[C@]4(C)[C@H]3CC[C@]12C)OS(=O)(=O)O [SQUALAMINE]
MIC [1]: > 100 µg/mL | MIC [2]: > 100 µg/mL | MIC [3]: > 100 µg/mL | MIC [4]: 3.13 µg/mL (≈ 4.98 µM) | MIC [5]: 3.13 µg/mL (≈ 4.98 µM) | MIC [6]: > 100 µg/mL | MIC [7]: > 100 µg/mL | MIC [8]: 6.25 µg/mL (≈ 9.95 µM) | MIC [10]: 12.5 µg/mL (≈ 19.9 µM) | MIC [11]: 3.13 µg/mL (≈ 4.98 µM)

C[C@H](COC(=O)NCCCNCCCCNCCC[N+](C)(C)C)[C@H]1CC[C@H]2[C@@H]3CC[C@H]4C[C@H](O)CC[C@]4(C)[C@H]3CC[C@]12C
MIC [1]: > 100 µg/mL | MIC [2]: 6.25 µg/mL | MIC [3]: > 100 µg/mL | MIC [4]: 1.56 µg/mL | MIC [5]: 3.13 µg/mL | MIC [6]: > 100 µg/mL | MIC [7]: 25 µg/mL | MIC [8]: 1.56 µg/mL | MHC [9]: 25 µg/mL | MIC [10]: 6.25 µg/mL | MIC [11]: 1.56 µg/mL

C[C@H](COC(=O)NCCCNCCCCNCCC[N+](C)(C)C)[C@H]1CC[C@H]2[C@@H]3CC[C@@H]4C[C@H](O)CC[C@]4(C)[C@H]3CC[C@]12C
MIC [1]: > 100 µg/mL | MIC [2]: 12.5 µg/mL | MIC [3]: 12.5 µg/mL | MIC [4]: 1.56 µg/mL | MIC [5]: 1.56 µg/mL | MIC [6]: > 100 µg/mL | MIC [7]: 3.13 µg/mL | MIC [8]: 0.78 µg/mL | MHC [9]: 25 µg/mL | MIC [10]: > 100 µg/mL | MIC [11]: 1.56 µg/mL

C[C@H](COC(=O)NCCCNCCCCN)[C@H]1CC[C@H]2[C@@H]3[C@H](O)C[C@H]4C[C@H](O)CC[C@]4(C)[C@H]3CC[C@]12C
MIC [1]: > 100 µg/mL | MIC [2]: 50 µg/mL (≈ 95.8 µM) | MIC [3]: > 100 µg/mL | MIC [4]: 6.25 µg/mL (≈ 12 µM) | MIC [5]: 3.13 µg/mL (≈ 6 µM) | MIC [6]: > 100 µg/mL | MIC [7]: 25 µg/mL (≈ 47.9 µM) | MIC [8]: 3.13 µg/mL (≈ 6 µM) | MHC [9]: 100 µg/mL | MIC [10]: > 100 µg/mL | MIC [11]: 12.5 µg/mL (≈ 24 µM)
